Results reported in patent US10500166B2, “Methods for the treatment of erectile dysfunction using fispemifene” (QUATRX PHARMACEUTICALS, priority 2007, dated 2019).

How the values were obtained:
[1] = system: calculated free testosterone; experiment: Example 3 study in hypogonadal men: calculated serum free testosterone (ITT); format: in vivo, human
Method: FIG. 7 depicts a graph of the data of the study from Example 3 showing the calculated serum free testosterone level (ng/dL) over time for each of the treatment groups. The bars from left to right for each of the BL (baseline), 2 week, 4 week, and 6 week timepoints (the 6 week timepoint occurred 2 weeks after the discontinuation of study drug at week 4) correspond to the placebo, 100 mg, 200 mg, and 300 mg/day doses, respectively;
A randomized, double-blind, placebo controlled, parallel-group study of once-daily doses of fispemifene (100, 200, and 300 mg/day) given for 4 weeks was conducted in a population of hypogonadal men. Subjects were required to meet all of the following inclusion criteria at screening and prior to randomization to be eligible for the study:
There were 77 subjects total. The number of subjects randomized to the 100 mg fispemifene, 200 mg fispemifene, 300 mg fispemifene, and placebo arms were 21, 21, 19, and 16, respectively.
Subjects were randomly assigned to one of four treatment groups in a 1:1:1:1 ratio: • Treatment A (100 mg): fispemifene 100 mg+placebo+placebo; • Treatment B (200 mg): fispemifene 100 mg+fispemifene 100 mg+placebo; • Treatment C (300 mg): fispemifene 100 mg+fispemifene 100 mg+fispemifene 100 mg; and • Treatment D (Placebo): placebo+placebo+placebo.
Subjects took one dose (three capsules) of study medication once a day at home for 4 weeks. Capsules were to be taken in the morning immediately after breakfast, with the exception of the morning of the Week 4 visit. Capsules were not to be taken on the morning of the Week 4 visit because trough plasma levels of fispemifene were determined by a blood sample taken at this visit. Each subject was randomly assigned to treatment with one of the 3 different dose regimens of fispemifene or placebo vehicle. Each subject received a 4 week supply of study drug.
Blood samples were taken from the subjects within 1 week prior to dosing with study drug to establish baseline values; after 2 and 4 weeks of randomization; and 2 weeks after the last dose of study drug. Serum was prepared from those samples and used to determine the mean % change from baseline in total testosterone, free testosterone, SHBG (sex hormone-binding globulin), DHT (dihydrotestosterone), E2 (estradiol), LH (luteinizing hormone), FSH (follicle stimulating hormone), and inhibin B.
1. Percent change from baseline in free testosterone and calculated free testosterone at Weeks 2, 4, and 6;

estradiol = experiment: Phase I repeated dose study 101-50202: serum estradiol; format: in vivo, human
Excerpt: Fispemifene has been studied in two phase I studies in humans—in a single dose and a repeated dose study. Effect of fispemifene on hormone levels was one main focus of the repeated dose study. The phase I repeated dose study (number 101-50202) was a randomized, double-blind, placebo-controlled 28-day dose-escalation study performed in 31 healthy, elderly men, aged 50-68 years. The main objective of the study was to investigate the tolerability, safety and pharmacokinetics of fispemifene after repeated oral doses, but the study focused also on the effects of fispemifene on serum free and total testosterone, estradiol, and other relevant hormones. The fispemifene doses 10, 30, 100 and 300 mg per day and placebo were administered once every morning as capsules containing 10 mg or 100 mg of fispemifene, or placebo.
The variables for safety and tolerability were adverse events, vital signs, 12-lead ECG, clinical laboratory evaluations, physical examination, ultrasound examinations (mammary glands) and inhibin B. For pharmacokinetics, the concentrations of fispemifene and its metabolite(s) were to be evaluated. For pharmacodynamics, serum concentrations of FSH, LH, estradiol, testosterone, SHBG, prolactin, aldosterone, cortisol and TSH before and during treatment were measured and compared with the concentrations in the placebo-group.

[2] = 100 mg/day, Week 6 (2 weeks after discontinuation)
[3] = 100 mg/day, to Week 6 (2 weeks after discontinuation)
[4] = 200 mg/day, Week 6 (2 weeks after discontinuation)
[5] = 200 mg/day, to Week 6 (2 weeks after discontinuation)
[6] = 300 mg/day, Week 6 (2 weeks after discontinuation)
[7] = 300 mg/day, to Week 6 (2 weeks after discontinuation)

OCCOCCOc1ccc(/C(=C(/CCCl)c2ccccc2)c2ccccc2)cc1 [Fispemifene, (Z)-2-{2-[4-(4-Chloro-1,2-diphenylbut-1-enyl)phenoxy]ethoxy}ethanol]
Calculated Free Testosterone, Max ([1]; 100 mg/day, Baseline (Visit 2)): 7.54 ng/dL | Calculated Free Testosterone, Mean ± SD ([1]; 100 mg/day, Baseline (Visit 2)): 4.81 ± 1.368 ng/dL | Calculated Free Testosterone, Median ([1]; 100 mg/day, Baseline (Visit 2)): 4.95 ng/dL | Calculated Free Testosterone, Min ([1]; 100 mg/day, Baseline (Visit 2)): 2.19 ng/dL | Calculated Free Testosterone, Max ([1]; 100 mg/day, Week 2): 10.27 ng/dL | Calculated Free Testosterone, Mean ± SD ([1]; 100 mg/day, Week 2): 6.64 ± 1.732 ng/dL | Calculated Free Testosterone, Median ([1]; 100 mg/day, Week 2): 6.46 ng/dL | Calculated Free Testosterone, Min ([1]; 100 mg/day, Week 2): 4.32 ng/dL | Calculated Free Testosterone, Max ([1]; 100 mg/day, Week 4): 9.13 ng/dL | Calculated Free Testosterone, Mean ± SD ([1]; 100 mg/day, Week 4): 6.59 ± 1.396 ng/dL | Calculated Free Testosterone, Median ([1]; 100 mg/day, Week 4): 6.63 ng/dL | Calculated Free Testosterone, Min ([1]; 100 mg/day, Week 4): 4.15 ng/dL | Calculated Free Testosterone, Max [1, 2]: 7.05 ng/dL | Calculated Free Testosterone, Mean ± SD [1, 2]: 5.15 ± 1.057 ng/dL | Calculated Free Testosterone, Median [1, 2]: 5.10 ng/dL | Calculated Free Testosterone, Min [1, 2]: 2.57 ng/dL | Calculated Free Testosterone, % Change from Baseline, Max ([1]; 100 mg/day, to Week 2): 100% | Calculated Free Testosterone, % Change from Baseline, Median ([1]; 100 mg/day, to Week 2): 36% | Calculated Free Testosterone, % Change from Baseline, Min ([1]; 100 mg/day, to Week 2): 8% | Calculated Free Testosterone, % Change from Baseline, Max ([1]; 100 mg/day, to Week 4): 157% | Calculated Free Testosterone, % Change from Baseline, Median ([1]; 100 mg/day, to Week 4): 36% | Calculated Free Testosterone, % Change from Baseline, Max [1, 3]: 115% | Calculated Free Testosterone, % Change from Baseline, Median [1, 3]: 8% | Calculated Free Testosterone, Max ([1]; 200 mg/day, Baseline (Visit 2)): 7.29 ng/dL | Calculated Free Testosterone, Mean ± SD ([1]; 200 mg/day, Baseline (Visit 2)): 4.80 ± 1.143 ng/dL | Calculated Free Testosterone, Median ([1]; 200 mg/day, Baseline (Visit 2)): 4.70 ng/dL | Calculated Free Testosterone, Min ([1]; 200 mg/day, Baseline (Visit 2)): 2.66 ng/dL | Calculated Free Testosterone, Max ([1]; 200 mg/day, Week 2): 8.98 ng/dL | Calculated Free Testosterone, Mean ± SD ([1]; 200 mg/day, Week 2): 6.37 ± 1.386 ng/dL | Calculated Free Testosterone, Median ([1]; 200 mg/day, Week 2): 6.21 ng/dL | Calculated Free Testosterone, Min ([1]; 200 mg/day, Week 2): 4.11 ng/dL | Calculated Free Testosterone, Max ([1]; 200 mg/day, Week 4): 9.83 ng/dL | Calculated Free Testosterone, Mean ± SD ([1]; 200 mg/day, Week 4): 6.64 ± 1.658 ng/dL | Calculated Free Testosterone, Median ([1]; 200 mg/day, Week 4): 6.39 ng/dL | Calculated Free Testosterone, Min ([1]; 200 mg/day, Week 4): 4.05 ng/dL | Calculated Free Testosterone, Max [1, 4]: 7.81 ng/dL | Calculated Free Testosterone, Mean ± SD [1, 4]: 5.153 ± 1.328 ng/dL | Calculated Free Testosterone, Median [1, 4]: 4.88 ng/dL | Calculated Free Testosterone, Min [1, 4]: 3.60 ng/dL | Calculated Free Testosterone, % Change from Baseline, Max ([1]; 200 mg/day, to Week 2): 124% | Calculated Free Testosterone, % Change from Baseline, Median ([1]; 200 mg/day, to Week 2): 28% | Calculated Free Testosterone, % Change from Baseline, Min ([1]; 200 mg/day, to Week 2): 1% | Calculated Free Testosterone, % Change from Baseline, Max ([1]; 200 mg/day, to Week 4): 112% | Calculated Free Testosterone, % Change from Baseline, Median ([1]; 200 mg/day, to Week 4): 40% | Calculated Free Testosterone, % Change from Baseline, Max [1, 5]: 75% | Calculated Free Testosterone, % Change from Baseline, Median [1, 5]: 6% | Calculated Free Testosterone, Max ([1]; 300 mg/day, Baseline (Visit 2)): 7.02 ng/dL | Calculated Free Testosterone, Mean ± SD ([1]; 300 mg/day, Baseline (Visit 2)): 4.66 ± 1.509 ng/dL | Calculated Free Testosterone, Median ([1]; 300 mg/day, Baseline (Visit 2)): 4.94 ng/dL | Calculated Free Testosterone, Min ([1]; 300 mg/day, Baseline (Visit 2)): 0.23 ng/dL | Calculated Free Testosterone, Max ([1]; 300 mg/day, Week 2): 9.79 ng/dL | Calculated Free Testosterone, Mean ± SD ([1]; 300 mg/day, Week 2): 6.43 ± 2.152 ng/dL | Calculated Free Testosterone, Median ([1]; 300 mg/day, Week 2): 7.25 ng/dL | Calculated Free Testosterone, Min ([1]; 300 mg/day, Week 2): 0.14 ng/dL | Calculated Free Testosterone, Max ([1]; 300 mg/day, Week 4): 10.31 ng/dL | Calculated Free Testosterone, Mean ± SD ([1]; 300 mg/day, Week 4): 7.33 ± 2.589 ng/dL | Calculated Free Testosterone, Median ([1]; 300 mg/day, Week 4): 8.40 ng/dL | Calculated Free Testosterone, Min ([1]; 300 mg/day, Week 4): 0.10 ng/dL | Calculated Free Testosterone, Max [1, 6]: 8.02 ng/dL | Calculated Free Testosterone, Mean ± SD [1, 6]: 5.29 ± 1.791 ng/dL | Calculated Free Testosterone, Median [1, 6]: 5.44 ng/dL | Calculated Free Testosterone, Min [1, 6]: 0.22 ng/dL | Calculated Free Testosterone, % Change from Baseline, Max ([1]; 300 mg/day, to Week 2): 83% | Calculated Free Testosterone, % Change from Baseline, Median ([1]; 300 mg/day, to Week 2): 40% | Calculated Free Testosterone, % Change from Baseline, Max ([1]; 300 mg/day, to Week 4): 133% | Calculated Free Testosterone, % Change from Baseline, Median ([1]; 300 mg/day, to Week 4): 59% | Calculated Free Testosterone, % Change from Baseline, Max [1, 7]: 65% | Calculated Free Testosterone, % Change from Baseline, Median [1, 7]: 10% | Serum estradiol, Mean (estradiol; 10 mg/day, Baseline): 106.2 pmol/L | Serum estradiol, Mean (estradiol; 10 mg/day, Day 8): 94.7 pmol/L | Serum estradiol, Mean (estradiol; 10 mg/day, Day 15): 81.7 pmol/L | Serum estradiol, Mean (estradiol; 10 mg/day, Day 22): 116.6 pmol/L | Serum estradiol, Mean (estradiol; 10 mg/day, Day 28): 75.0 pmol/L | Serum estradiol, Mean (estradiol; 30 mg/day, Baseline): 97.8 pmol/L | Serum estradiol, Mean (estradiol; 30 mg/day, Day 8): 105.6 pmol/L | Serum estradiol, Mean (estradiol; 30 mg/day, Day 15): 102.4 pmol/L | Serum estradiol, Mean (estradiol; 30 mg/day, Day 22): 99.6 pmol/L | Serum estradiol, Mean (estradiol; 30 mg/day, Day 28): 87.0 pmol/L | Serum estradiol, Mean (estradiol; 100 mg/day, Baseline): 84.3 pmol/L | Serum estradiol, Mean (estradiol; 100 mg/day, Day 8): 108.3 pmol/L | Serum estradiol, Mean (estradiol; 100 mg/day, Day 15): 111.5 pmol/L | Serum estradiol, Mean (estradiol; 100 mg/day, Day 22): 106.3 pmol/L | Serum estradiol, Mean (estradiol; 100 mg/day, Day 28): 94.5 pmol/L | Serum estradiol, Mean (estradiol; 300 mg/day, Baseline): 102.5 pmol/L | Serum estradiol, Mean (estradiol; 300 mg/day, Day 8): 104.0 pmol/L | Serum estradiol, Mean (estradiol; 300 mg/day, Day 15): 97.8 pmol/L | Serum estradiol, Mean (estradiol; 300 mg/day, Day 22): 95.5 pmol/L | Serum estradiol, Mean (estradiol; 300 mg/day, Day 28): 89.7 pmol/L
